According to patent US20260297088A1, “A 1,5-DIHYDRO-4H-PYRROLO[3,2-C] PYRIDIN-4-ONE FOR USE IN THE TREATMENT OF CANCER” (ANTARES THERAPEUTICS, INC., priority 2023, published 2026):

What was measured:
BaF3 L858R/C797S = experiment: Ba/F3 cell viability (CellTiter-Glo), EGFR L858R/C797S; assay type: cell-based, murine; conditions: Mus musculus, 72 hours
[1] = test system: EGFR Del19 phosphorylation (pEGFR); experiment: Inhibitor activity on EGFR phosphorylation (pEGFR AlphaLISA), Del19; assay type: cell-based; conditions: 2 hours
[2] = test system: EGFR L858R phosphorylation (pEGFR); experiment: Inhibitor activity on EGFR phosphorylation (pEGFR AlphaLISA), L858R; assay type: cell-based; conditions: 2 hours
[3] = test system: BaF3 ASV (EGFR exon 20 ASV Ins V769_D770); experiment: Ba/F3 cell viability (CellTiter-Glo), EGFR exon 20 ASV Ins V769_D770; assay type: cell-based, murine; conditions: Mus musculus, Ba/F3 EGFR exon 20 ASV Ins V769_D770, 72 hours
Text: (§1) Cell lines are generated by transducing Ba/F3 cells with retroviruses containing vectors with EGFR WT, EGFR exon 20 NPG Ins D770_N771, EGFR exon 20 ASV Ins V769_D770, EGFR exon 20 SVD Ins D770_N771, or EGFR exon 20 FQEA Ins A763_V764 genes and a puromycin selection marker. Transduced cells are selected with puromycin for 7 days and are then be transferred into culture media without Interleukin 3 (IL3). EGFR WT cells are maintained with supplemental EGF. Surviving cells are confirmed to express EGFR by Western blot and maintained as a pool. The IC50 data are included in Table 6.
(§2) • 1 Cell seeding • 1.1 Cells are harvested from flask into cell culture medium and the cell number counted. • 1.2 Cells are diluted with culture medium to the desired density and 40 L of cell suspension is added into each well of 384-well cell culture plate and the seeding density is 600 cells/well. • 2 Compound preparation and treatment • 2.1 Test compounds are dissolved to 10 mM in a DMSO stock solution. 45 µL of stock solution is transferred to a 384 polypropylene plate (pp-plate). Perform 3-fold, 10-point dilution via transferring 15 L compound into 30 L DMSO using a TECAN (EVO200) liquid handler. • 2.2 Spin plates at room temperature at 1,000 RPM for 1 minute. • 2.3 Transfer 120 nL of diluted compound from compound source plate into the cell plate. • 2.4 After compound treatment for 72 hours, perform CTG detection for compound treatment plates as described in “Detection” section. • 3 Detection • 3.1 Plates are removed from incubators and equilibrated at room temperature for 15 minutes. • 3.2 Thaw the CellTiter Glo reagents and allow to equilibrate to room temperature before the experiment. • 3.3 Add 40 µL of CellTiter-Glo reagent into each well (at 1:1 to culture medium). Then place the plates at room temperature for 30 min followed by reading on EnVision. • 4 Data analysis • 4.1 Inhibition activity is calculated following the formula below:
(§3) [formula] • where HC is obtained from cells treated with 0.1% DMSO only; and LC is obtained from culture medium only. • 4.2 2. Calculate the IC50 by fitting the Curve using Xlfit (v5.3.1.3), equation 201:
(§4) [formula] • The IC50 date are included in Table 6.

[4] = test system: EGFR phosphorylation (pEGFR) in CUTO14 cells; experiment: Inhibitor activity on EGFR phosphorylation (pEGFR AlphaLISA), CUTO14 cells; assay type: cell-based; conditions: 2 hours
Text: EGFR mutant Ba/F3 cells were generated by transduction with retrovirus containing vectors expressing EGFR exon 20 NPG Ins D770_N771, EGFR exon 20 ASV Ins V769_D770, or EGFR exon 20 SVD Ins D770_N771 genes along with a puromycin selection marker. Transduced cells are selected with puromycin for 7 days and are then be transferred into culture media without Interleukin 3 (IL3). Surviving cells are confirmed to express EGFR by Western blot and maintained as a pool. CUTO14 cells were obtained from Dr. Robert C. Doebele at the University of Colorado. The IC50 data are included in Table 6.
• 1 Cell seeding • 1.1 Cells are harvested from flask into cell culture medium and the cell number counted. • 1.2 Cells are diluted with culture medium to the desired density and 40 μL of cell suspension is added into each well of 384-well cell culture plate and the seeding density is 50K cells/well (Ba/F3) or 12.5K cells/well (CUTO14). • 2 Compound preparation and treatment • 2.1 Test compounds are dissolved to 10 mM in a DMSO stock solution. 45 µL of stock solution is transferred to a 384 polypropylene plate (pp-plate). Perform 3-fold, 10-point dilution via transferring 15 L compound into 30 L DMSO using a TECAN (EVO200) liquid handler. • 2.2 Spin plates at room temperature at 1,000 RPM for 1 minute. • 2.3 Transfer 5 nL of diluted compound from compound source plate into the cell plate. • 2.4 After compound treatment for 2 hours, perform pEGFR detection by AlphaLISA for compound treatment plates as described in “Detection” section. • 3 Detection by pEGFR AlphaLISA (Perkin-Elmer) • 3.1 Plates are removed from incubators and equilibrated at room temperature for 10 minutes, and media was removed • 3.2 10 µL of lysis buffer is added and plates shaken at 600 rpm for 1 hr. • 3.3 Prepare acceptor mix just before use and dispense 5 μL of acceptor mix to all the wells. […] Mix well on the shaker, seal and wrap in aluminum foil and incubate 1.5 hrs at room temperature in the dark • 3.5 Transfer 18.5 μL mixture to OptiPlate 384, and read using an Envision.

BaF3 WT (EGFR WT) = experiment: Ba/F3 cell viability (CellTiter-Glo), EGFR WT; assay type: cell-based, murine; conditions: Mus musculus, supplemental EGF, 72 hours
Text: as §1, §2, §3, §4

[5] = test system: EGFR L858R/C797S phosphorylation (pEGFR); experiment: Inhibitor activity on EGFR phosphorylation (pEGFR AlphaLISA), L858R/C797S; assay type: cell-based; conditions: 2 hours
[6] = test system: BaF3 NPG (EGFR exon 20 NPG Ins D770_N771); experiment: Ba/F3 cell viability (CellTiter-Glo), EGFR exon 20 NPG Ins D770_N771; assay type: cell-based, murine; conditions: Mus musculus, Ba/F3 EGFR exon 20 NPG Ins D770_N771, 72 hours
Text: as §1, §2, §3, §4

[7] = test system: BaF3 SVD (EGFR exon 20 SVD Ins D770_N771); experiment: Ba/F3 cell viability (CellTiter-Glo), EGFR exon 20 SVD Ins D770_N771; assay type: cell-based, murine; conditions: Mus musculus, Ba/F3 EGFR exon 20 SVD Ins D770_N771, 72 hours
Text: as §1, §2, §3, §4

BaF3 L858R = experiment: Ba/F3 cell viability (CellTiter-Glo), EGFR L858R; assay type: cell-based, murine; conditions: Mus musculus, 72 hours
BaF3 Del19 = experiment: Ba/F3 cell viability (CellTiter-Glo), EGFR Del19; assay type: cell-based, murine; conditions: Mus musculus, 72 hours
[8] = test system: EGFR containing one or more mutations versus wild type EGFR; conditions: compound of WO 2022/076831; cited from earlier work

| SMILES | IC50 (BaF3 L858R/C797S) | IC50 [1] | IC50 [2] | IC50 [3] | IC50 [4] | IC50 (BaF3 WT (EGFR WT)) | IC50 [5] | IC50 [6] | IC50 [7] | IC50 (BaF3 L858R) | IC50 (BaF3 Del19) | inhibition of mutant EGFR relative to wild type EGFR [8] |
| --- | --- | --- | --- | --- | --- | --- | --- | --- | --- | --- | --- | --- |
| COCCc1c[nH]c(=O)c2c(Nc3cccc(F)c3OC)c(-c3ccnc(C)n3)[nH]c12 [Compound 4] | < 100 nM | < 100 nM | < 100 nM | 100 to 1000 nM | < 100 nM | ≥ 1000 nM | < 100 nM | 100 to 1000 nM | 100 to 1000 nM | – | – | – |
| COc1c(F)cccc1Nc1c(-c2ccnc(C)n2)[nH]c2c(CCO)c[nH]c(=O)c12 [Compound 6] | 100 to 1000 nM | < 100 nM | 100 to 1000 nM | ≥ 1000 nM | – | ≥ 1000 nM | < 100 nM | 100 to 1000 nM | 100 to 1000 nM | – | – | – |
| COCC[C@H]1CNC(=O)c2c1[nH]c(-c1ccnc(C)n1)c2Nc1cccc(Cl)c1OC [Compound 463b] | – | – | – | – | – | – | – | – | – | – | – | greater inhibition of EGFR containing one or more mutations relative to inhibition of wild type EGFR |

More lines, main results first:

| IC50 (BaF3 L858R/C797S) | IC50 [1] | IC50 [2] | IC50 [3] | IC50 [4] | IC50 (BaF3 WT (EGFR WT)) | IC50 [5] | IC50 [6] | IC50 [7] | IC50 (BaF3 L858R) | IC50 (BaF3 Del19) | SMILES | inhibition of mutant EGFR relative to wild type EGFR [8] |
| --- | --- | --- | --- | --- | --- | --- | --- | --- | --- | --- | --- | --- |
| 100 to 1000 nM | < 100 nM | < 100 nM | 100 to 1000 nM | 100 to 1000 nM | ≥ 1000 nM | < 100 nM | 100 to 1000 nM | 100 to 1000 nM | < 100 nM | < 100 nM | COc1c(Cl)cccc1Nc1c(-c2ccnc(C)n2)[nH]c2c(CCO)c[nH]c(=O)c12 [Compound 5] | – |
| < 100 nM | < 100 nM | < 100 nM | 100 to 1000 nM | < 100 nM | ≥ 1000 nM | < 100 nM | 100 to 1000 nM | < 100 nM | < 100 nM | < 100 nM | COCCc1c[nH]c(=O)c2c(Nc3cccc(Cl)c3OC)c(-c3ccncn3)[nH]c12 [Compound 2] | – |
| – | – | – | 100 to 1000 nM | – | ≥ 1000 nM | – | – | 100 to 1000 nM | < 100 nM | < 100 nM | COCCc1c[nH]c(=O)c2c(Nc3cccc(Cl)c3OC)c(-c3ccncc3F)[nH]c12 [Compound 3] | – |
